# Test results from US20230021365A1, “COMPOSITION COMPRISING P53-ACTIVATING PEPTIDE” (SUPADELIXIR INC., priority 2019, published 2023).
# Test system: interaction between p53 and POLII
# Test: in situ PLA (proximity ligation assay) of physical binding between p53 and RNA Polymerase II (POLII) in HaCaT cells
# Assay type: cell-based, human
# Settings: summary statement in the description
# Protocol: After treating cells with the peptides of the present invention, the effects thereof on the physical binding between p53 and RNA Polymerase II (POLII) were evaluated through an in situ PLA (proximity ligation assay) method. HaCaT cells (human keratinocytes, CLS) were added at 4.5×10^4 cells per well, along with a DMEM containing 10% fetal bovine serum, to each well of a 24-well microplate and then cultured at 37° C. in a 5% CO2 incubator for 24 hours. The peptide solutions of Example 2 were added thereto so that the concentration of each peptide in the medium was 20 μM, followed by incubating for 1 hour under the same condition. […] The cells of each well were washed with PBS, fixed by treating with 2% formaldehyde for 15 minutes, and then treated with 0.1% TritonX-100 for 5 minutes to increase antibody permeability into the cells. Anti-p53 polyclonal antibody (Abcam, UK) and anti-POLII polyclonal antibody (Santa Cruz, Calif., USA) were added thereto. After the PLA probe was added thereto using the in situ PLA kit (Sigma-Aldrich), hybridization, ligation, amplification and mounting steps were carried out according to the manufacturer's protocol. Each physical interaction between p53 and POLII was quantified by measuring the luminescence signals (PLA signals) detected in each cell with a confocal laser microscope (Olympus fluoview FW1000; Olympus, Tokyo, Japan).
row,Substance,activity in decreasing the interaction between p53 and MDM2 and thus increasing the interaction between p53 and POLII
1,Leu-Ala-Asp (LAD) [Pep 4],particularly excellent activity
2,Leu-Arg-Asp (LRD) [Pep 6],particularly excellent activity
3,Leu-Gly-Asp (LGD) [Pep 3],particularly excellent activity
4,Leu-Lys-Asp (LKD) [Pep 7],particularly excellent activity
5,Leu-Ser-Asp (LSD) [Pep 2],particularly excellent activity
6,Leu-Thr-Asp (LTD) [Pep 18],particularly excellent activity
7,Leu-Tyr-Asp (LYD) [Pep 9],particularly excellent activity
